Laboratory results: patent US7348034B2, “Plant based formulations for improving skin moisture, texture, and appearance” (Access Business Group International LLC, priority 2005, dated 2008)

Columns and labels:
[1] = system: mouse keratinocytes; conditions: mouse keratinocytes in vitro; cited from earlier work
[2] = system: Human HEK001 cells; experiment: Lipid synthesis, Oil Red O staining; type: cell-based; set-up: key to Lipids: a “+” sign indicates an increase in synthesis; ++: multiple “+” signs indicating a higher increase in synthesis; +++: multiple “+” signs indicating a higher increase in synthesis; ++++: multiple “+” signs indicating a higher increase in synthesis; a “−” sign indicates decrease in synthesis; −−: multiple “−”signs indicating a higher decrease in synthesis; conditions: 0.005%, overnight; for Lipids: 0.05%, and 0.5% in media, Oil Red O OD 515 nm
Method: Human HEK001 cells were plated at 2×10^4/well in 96 well plates and were incubated overnight. The following day, the cells were exposed to: glycine, Cherokee rose hips, grape seed extract, Wolfberry extract, Pickled Ume, Ascorbic acid, Chinese Angelica extract, royal jelly, and α-tocopherol, which were diluted into cell culture media at concentrations of 0.005%, 0.05%, and 0.5%. The cells were then again incubated overnight. The following day, the cells were fixed in 1% formaldehyde. Cellular lipids were then stained with Oil Red O® stain. See Ramirez J L, Castro-Munnozledo F, Kuri-Harusch W. 1992. “Quantitation of adipose conversion and triglycerides by staining intracytoplasmic lipids with Oil Red O.” Histochemistry. 97:493-497. Following staining, the lipid bound stain was extracted with isopropanol. The OD of the extracted stain was read at 515 nm.

[3] = system: Hs27 human fibroblast / HEK human keratinocyte co-cultures; experiment: Pro-collagen synthesis in fibroblast/keratinocyte co-cultures (ELISA); type: cell-based; set-up: key: a “+” sign indicates an increase in synthesis; ++: multiple “+” signs indicating a higher increase in synthesis; +++: multiple “+” signs indicating a higher increase in synthesis; ++++: multiple “+” signs indicating a higher increase in synthesis; a “−” sign indicates decrease in synthesis; −−: multiple “−”signs indicating a higher decrease in synthesis; conditions: 10 mg/ml, overnight, pro-collagen in supernatant
Method: Hs27, a human fibroblast cell culture and HEK, a human keratinocyte cell culture, were established in 24 well plates. The cells were exposed to various ingredients used in formulations of the present invention at concentrations of 10 mg/ml. The co-cultures were then incubated overnight. The following day, supernatants were collected. The supernatants were analyzed for the presence of pro-collagen, a soluble precursor of collagen formed by fibroblasts in the process of collagen synthesis. Pro-collagen synthesis was assayed using commercially available ELISA kits. See […], Falabella A, Ochoa S, Zhou […]. “Dermal fibroblasts from venous ulcers are unresponsive to the action of transforming growth factor-beta 1.” J Dermatol Sci. 1997. 16(1):59-66.

[4] = system: Hs27 human fibroblast / HEK human keratinocyte co-cultures; experiment: Elastin synthesis in fibroblast/keratinocyte co-cultures (Fastin Elastin kit); type: cell-based; set-up: key: a “+” sign indicates an increase in synthesis; ++: multiple “+” signs indicating a higher increase in synthesis; +++: multiple “+” signs indicating a higher increase in synthesis; ++++: multiple “+” signs indicating a higher increase in synthesis; a “−” sign indicates decrease in synthesis; −−: multiple “−”signs indicating a higher decrease in synthesis; conditions: 10 mg/ml, overnight, elastin in supernatant
Method: Hs27, a human fibroblast cell culture and HEK, a human keratinocyte cell culture, were established in 24 well plates. The cells were exposed to various ingredients of the formulations of the present invention at concentrations of 10 mg/ml. The co-cultures were then incubated overnight. The following day supernatants were collected. The supernatants were analyzed for the presence of elastin using the Fastin Elastin® kit from Biocolor. Liao […]. 2004. “Relationship between collagen fibrils, glycosaminoglycans, and stress relaxation in mitral valve chordae […].” Ann. Biomed. Eng. 32(7):977-983.

[5] = daily consumption of tomato paste over ten weeks; cited from earlier work
[6] = system: humans; conditions: supplementation with high doses; cited from earlier work
[7] = molecular target: T1, MMP-1 (Homo sapiens, UniProt P03956); experiment: MMP-1 enzyme activity (Amersham kit); type: biochemical; set-up: key: a “+” sign indicates an increase in synthesis; ++: multiple “+” signs indicating a higher increase in synthesis; +++: multiple “+” signs indicating a higher increase in synthesis; ++++: multiple “+” signs indicating a higher increase in synthesis; a “−” sign indicates decrease in synthesis; −−: multiple “−”signs indicating a higher decrease in synthesis; conditions: samples diluted to 100 μg/ml
T1 construct: purchased Amersham
T1 sequence (P03956 100-469): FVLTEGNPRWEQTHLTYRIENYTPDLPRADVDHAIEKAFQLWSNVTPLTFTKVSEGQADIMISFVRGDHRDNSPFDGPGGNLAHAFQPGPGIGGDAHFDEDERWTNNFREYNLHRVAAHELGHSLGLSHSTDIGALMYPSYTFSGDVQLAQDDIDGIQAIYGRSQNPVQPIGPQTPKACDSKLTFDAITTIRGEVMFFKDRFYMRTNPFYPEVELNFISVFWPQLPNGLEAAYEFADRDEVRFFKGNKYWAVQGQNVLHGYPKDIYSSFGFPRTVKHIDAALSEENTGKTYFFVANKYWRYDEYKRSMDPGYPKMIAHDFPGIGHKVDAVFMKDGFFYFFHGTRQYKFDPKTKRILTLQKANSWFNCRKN
Source text: (§1) Commercially available kits were used for testing the effect of various ingredients used in the formulations of the present invention on the activity of the MMP-1, MMP-9, and elastase. Gould L J, Yager D R, McGeehan G M, Diegelmann R F. 1999. “Method to analyze collagenase and gelatinase activity by fibroblasts in culture.” In Vitro Cell. Dev. Biol. Anim. 35(2):75-79. For MMP-1, a kit from Amersham® was used according to the manufacturer's specifications. For MMP-9 and Elastase, kits from Molecular Probes® were used. The samples were prepared in stock solvent at stock concentrations of 100 mg/ml. The samples were diluted to 100 μg/ml using PBS.

[8] = system: MMP-9; experiment: MMP-9 enzyme activity (Molecular Probes kit); type: biochemical; set-up: key: a “+” sign indicates an increase in synthesis; ++: multiple “+” signs indicating a higher increase in synthesis; +++: multiple “+” signs indicating a higher increase in synthesis; ++++: multiple “+” signs indicating a higher increase in synthesis; a “−” sign indicates decrease in synthesis; −−: multiple “−”signs indicating a higher decrease in synthesis; conditions: samples diluted to 100 μg/ml
Source text: as §1

[9] = molecular target: T2, Elastase (Sus scrofa, UniProt P00772); experiment: Elastase enzyme activity (Molecular Probes kit); type: biochemical; set-up: key: a “+” sign indicates an increase in synthesis; ++: multiple “+” signs indicating a higher increase in synthesis; +++: multiple “+” signs indicating a higher increase in synthesis; ++++: multiple “+” signs indicating a higher increase in synthesis; a “−” sign indicates decrease in synthesis; −−: multiple “−”signs indicating a higher decrease in synthesis; conditions: samples diluted to 100 μg/ml
T2 construct: purchased Molecular Probes
Source text: as §1

T2 sequence (P00772 27-266): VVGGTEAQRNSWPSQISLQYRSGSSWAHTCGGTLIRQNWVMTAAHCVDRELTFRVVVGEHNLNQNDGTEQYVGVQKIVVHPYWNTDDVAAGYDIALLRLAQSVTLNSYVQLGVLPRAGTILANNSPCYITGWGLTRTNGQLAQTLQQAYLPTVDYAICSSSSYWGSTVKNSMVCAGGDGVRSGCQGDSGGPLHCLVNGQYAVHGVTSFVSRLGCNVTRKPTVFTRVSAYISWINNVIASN

Row | Structure (SMILES) | Lipids [2] | Collagen [3] | Elastin [4] | other results
1 | O=C1O[C@H]([C@@H](O)CO)C(O)=C1O [Ascorbic acid] | − | ++++ | + | UVB-induced oxidative damage [1]: shown to reduce UVB-induced oxidative damage in mouse
2 | NCC(=O)O [Glycine] | − | + | − | 
3 | CC(C)=CCC/C(C)=C/C=C/C(C)=C/C=C/C(C)=C/C=C/C=C(C)/C=C/C=C(C)/C=C/C=C(\C)CCC=C(C)C [Lycopene] |  |  |  | protection against erythema formation following UV-irradiation [5]: a period of ten weeks provides protection against erythema formation
4 | CC1=C(/C=C/C(C)=C/C=C/C(C)=C/C=C/C=C(C)/C=C/C=C(C)/C=C/C2=C(C)CCCC2(C)C)C(C)(C)CCC1 [beta-carotene] |  |  |  | protection against UV-induced erythema [6]: with high doses of beta-carotene protects against UV-induced
5 | Cc1c(C)c2c(c(C)c1O)CC[C@@](C)(CCC[C@H](C)CCC[C@H](C)CCCC(C)C)O2 [α-tocopherol] | + | − | − | MMP-1 [7]: −; induction of lipid synthesis ([2]; 0.05%, and 0.5%, Oil Red O): demonstrated the ability to induce lipid synthesis; MMP-9 [8]: −; Elastase [9]: −
